{"source": "patent US20240390455A1", "about": "“METHODS AND COMPOSITIONS FOR TREATING CANCERS AND OTHER PROLIFERATIVE DISORDERS” (ARIZONA BOARD OF REGENTS ON BEHALF OF THE UNIVERSITY OF …, priority 2022, published 2024)", "molecules": {"B1": {"name": "inositol monophosphatase 1 (IMPA1), rat, endogenous in lung tissue (enzyme, UniProt P97697 1-277, looked up)", "chain": "MADPWQECMDYAVILARQAGEMIREALKNKMDVMIKSSPADLVTVTDQKVEKMLMSSIKEKYPYHSFIGEESVASGEKTVFTEQPTWIIDPIDGTTNFVHRFPFVAVSIGFVVNKEMEFGVVYSCVEDKMYTGRKGKGAFCNGQKLRVSQQEDITKSLLVTELGSSRKPETLRIVLSNMERLCSIPIHGIRSVGTAAVNMCLVATGGADAYYEMGIHCWDMAGAGIIVIEAGGVLLDVTGGPFDLMSRRIIAASNIALAERIAKELEIIPLQRDDES", "notes": "Endogenous rat protein co-immunoprecipitated with RAGE"}}, "key": {"Akt": {"tested_on": "Akt", "experiment": "Akt phosphorylation in naive HPASMC treated with media from apoptotic cells (Western blot)", "assay_type": "cell-based, human", "settings": "apoptotic conditioned media, 24 h, L-690,330 at 500 μM, FIG. 9C", "description": "Western blot and immunoprecipitation: For an analysis of the total lung proteins, lung tissues were lysed. According to the manufacturer's protocol, the membrane proteins were isolated using Mem-PER Plus Membrane Protein Extraction Kit (ThermoFisher Scientific, Rockford, IL). Briefly, 20-40 mg of lung tissue was quickly washed in Cell WashSolution to remove any blood components, transferred to permeabilization buffer mixed with protease and phosphatase inhibitor cocktails, homogenized using Fisher Homogenizer 850 for 1 minute, and shaken in UltraCruz Shaker at 0° C. for 10 minutes. The homogenate was centrifuged at 16,000 g for 15 minutes to pellet permeabilized cells. The supernatant containing cytosolic proteins was carefully transferred to a separate tube. […] The reactive bands were visualized using a chemiluminescent protocol, recorded with the ChemiDoc MP Imaging System (Bio-RadLaboratories, Hercules, CA), and analyzed using Image Laboratory software. […]\nCell culture: Human pulmonary artery endothelial cells (HPAEC; cat. no. 3100, lot no. 3904) and human pulmonary artery smooth muscle cells (HPASMC; cat. no. 3110, lot no. 0294) were purchased from ScienCell (Carlsbad, CA), one donor for each cell type. […] The level of apoptosis was quantified using Apoptosis and Necrosis Quantification Kit (Biotum, Fremont, CA) according to the manufacturer's protocol. […]"}, "RAGE/IMPA1": {"molecular_target": "T1, RAGE/IMPA1 (Rattus norvegicus, UniProt P97697)", "T1 construct": "from tissue; host or cells: lung of Sprague-Dawley rats (SU5416/hypoxia PAH model)", "T1 sequence (P97697 1-277)": "B1 chain", "experiment": "RAGE/IMPA1 co-immunoprecipitation in lungs of SU/Hx rats after peptide injection", "assay_type": "in vivo", "settings": "5 μg/kg i.p. daily for 1 wk, FIG. 11B", "description": "(§1) Rat models of pulmonary hypertension: Thirty-two Sprague-Dawley female rats (200-250 g) were purchased from Charles River (Wilmington, MA). Animals were kept in a 12-h:12-h light-dark cycle and received standard rodent food and water ad libitum. All experimental procedures were approved by the University of Arizona's Institutional Animal Care and Use Committee. To induce PAH, rats received either the vehicle or a single dose of the VEGF receptor 2 antagonist SU5416, 50 mg/kg sc, as previously described. On the day of injection, the PAH rats were placed in a hypoxic chamber (BioSpherix, Redfield, NJ), and the oxygen was maintained at the level of 10±0.5%. The O2 and CO2 concentrations were continuously monitored (PROOX 110 BioSpherix oxygen controller and LB-2 CO2 analyzer; Sensormedics).\nFor immunoprecipitation (IP), RAGE antibodies conjugated to agarose beads were used according to the manufacturer's (Santa Cruz Biotechnology) protocol. Lung tissue lysate (300 μg of total protein) was rotated at room temperature with 20 μl of bead solution for 2 hours. Beads were collected by brief centrifugation (30 seconds at 1,000 g), washed four times with lysis buffer and PBS, resuspended with 30 μl of 2× Laemmli sample buffer, and boiled for 5 minutes at 95° C. The supernatant collected by centrifugation was used for Western Blot analysis as described."}, "SU/Hx rats": {"tested_on": "SU/Hx rats", "experiment": "SU/Hx rat model of pulmonary arterial hypertension: RV pressure and RV hypertrophy", "assay_type": "in vivo", "settings": "5 μg/kg i.p. daily for 1 wk", "description": "as §1\nThe animals were analyzed after 1 or 2 weeks of exposure to hypoxia or after 5 weeks (i.e., 3 weeks of hypoxia and 2 weeks of normoxia). The control rats were kept under normoxic conditions for the duration of the study (5 weeks). At the end of each study period, animals were anesthetized ([…], 100 mg/kg ip) and instrumented for measurement of right ventricle (RV) hemodynamics. Briefly, a PE-240 polyethylene tube was inserted into the trachea to facilitate breathing. […]"}, "[1]": {"tested_on": "PAEC isolated from IPAH patients", "experiment": "Proliferation of PAEC isolated from IPAH patients", "assay_type": "cell-based, human", "settings": "3.3 mg/ml, FIG. 11E"}, "[2]": {"tested_on": "PAEC isolated from Control subjects", "experiment": "Growth of PAEC isolated from Control subjects (healthy cells)", "assay_type": "cell-based, human", "settings": "3.3 mg/ml, FIG. 11F"}, "HeLa cells": {"tested_on": "HeLa cells", "experiment": "Proliferation of HeLa cells (human cancer cells)", "assay_type": "cell-based", "settings": "FIG. 11G"}, "[3]": {"molecular_target": "T2, receptor for advanced glycation endproducts (RAGE), rat, endogenous in lung tissue (rat, UniProt Q63495 23-402)", "T2 construct": "Endogenous rat protein, pulled down from lung lysate with RAGE antibody on agarose beads or detected in situ by PLA; No construct limits apply; also called full-size RAGE", "T2 sequence (Q63495 23-402 limits assumed)": "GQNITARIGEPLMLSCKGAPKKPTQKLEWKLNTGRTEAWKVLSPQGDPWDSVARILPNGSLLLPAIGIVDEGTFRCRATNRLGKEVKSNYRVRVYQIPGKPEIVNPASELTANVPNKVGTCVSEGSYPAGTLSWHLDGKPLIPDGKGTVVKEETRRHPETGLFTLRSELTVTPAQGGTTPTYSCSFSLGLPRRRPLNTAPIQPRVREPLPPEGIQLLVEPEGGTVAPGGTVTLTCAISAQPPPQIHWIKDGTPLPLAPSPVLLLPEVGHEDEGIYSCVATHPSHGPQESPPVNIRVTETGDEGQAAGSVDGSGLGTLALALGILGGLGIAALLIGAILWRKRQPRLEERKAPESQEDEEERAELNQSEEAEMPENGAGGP", "experiment": "RAGE co-IP from PAH rat lung, mass spectrometry, immunoblot time course and PLA", "source_text": "FIGS. 4A, 4B, and 4C show a receptor for advanced glycation endproducts (RAGE) interacting with inositol monophosphatase 1 (IMPA1) in pulmonary arterial hypertension (PAH). Mass spectrometry analysis of proteins co-immunoprecipitated (co-IP) with RAGE from lungs identified IMPA1 as a novel RAGE interacting partner. The RAGE-IMPA1 complex was discovered in both samples from PAH animals (week 5) but not in control (peptide probability […]; 4 peptides with P>89%). […] There was no interaction between RAGE and IMPA1 in controls from week 1 RAGE/IMPA1 were efficiently co-IP (n=4 for all groups). Results are expressed as box and whisker plots (boxes: 25th to 75th percentile of the data; whiskers: minimum to maximum; the line represents the median value). *P<0.05 vs. control. Statistical analysis was performed by Newman-Keuls multiple-comparisons test. […] Images are representative of 6 pulmonary arteries/at n=4 rats/group. Gray images were taken using light microscopy (×20) to visualize the tissue structure. The square represents the area of magnification (×100). The white marker corresponds to 25 μm. […] The dotted line is traced following the external lamina of the vessel. The arrowheads point to the endothelial cells with no PLA signal; white arrows point to the cells in the pulmonary artery media and adventitia cells with a bright PLA signal. IB, immunoblot. […]"}}, "data": [{"molecule": "CC(Oc1ccc(O)cc1)(P(=O)(O)O)P(=O)(O)O", "note": "[L-690,330]", "values": [{"measurement": "Akt phosphorylation", "setting": "Akt", "value": "significantly attenuated"}]}, {"molecule": "ILWQRRQRRG [SEQ ID NO: 1]", "values": [{"measurement": "RAGE/IMPA1 co-IP", "setting": "RAGE/IMPA1", "value": "inhibits RAGE/IMPA1 co-IP"}, {"measurement": "RVSP (right ventricle systolic pressure)", "setting": "SU/Hx rats; FIG. 11C", "value": "reduces RVSP"}, {"measurement": "RV hypertrophy", "setting": "SU/Hx rats; FIG. 11D", "value": "reduces"}]}, {"molecule": "anti-RAGE/IMPA1 peptide: peptide designed based on the sequence of cytosolic tails of RAGE predicted to interact with IMPA1; probably SEQ ID NO: 1 (ILWQRRQRRG)", "values": [{"measurement": "proliferative phenotype of PAEC isolated from IPAH patients", "setting": "[1]", "value": "reverses the highly proliferative phenotype"}, {"measurement": "growth of PAEC isolated from Control subjects", "setting": "[2]", "value": "does not affect the growth"}, {"measurement": "proliferative phenotype of HeLa cells", "setting": "HeLa cells", "value": "reverses the proliferative phenotype"}]}, {"molecule": "B1", "values": [{"measurement": "binding result", "setting": "[3]", "value": "binds"}]}]}
